Results: ChEMBL document CHEMBL4251633, “Design, synthesis, biological evaluation and cocrystal structures with tubulin of chiral β-lactam bridged combretastatin A-4 analogues as potent antitumor agents” (Eur J Med Chem, 2018)
Calls of active or inactive are those of the source. The calls are words filed in the database; no cut-off is given here.

Columns and labels:
HeLa [1] = assay: Inhibition of alpha-tubulin polymerization in human HeLa cells assessed as increase in ratio of supernatant faction to pellet fraction at 500 nM after 6 hrs by Western blot analysis; format: cell-based
Homo sapiens [2] = species: Homo sapiens; assay: Disruption of microtubule structure in human SKOV3 cells assessed as decrease in density at 50 nM after 24 hrs by DAPI staining based immunofluorescence assay; format: cell-based
HeLa [3] = assay: Induction of apoptosis in human HeLa cells assessed as live cells at 100 nM after 48 hrs by Annexin V-FITC/propidium iodide staining based flow cytometry (reference value: 96.5%); format: functional
HeLa [4] = assay: Cell cycle arrest in human HeLa cells assessed as accumulation at G2/M-phase at 50 nM after 24 hrs by propidium iodide staining based flow cytometry; format: functional
HeLa [5] = assay: Induction of apoptosis in human HeLa cells assessed as late apoptotic cells at 100 nM after 48 hrs by Annexin V-FITC/propidium iodide staining based flow cytometry (reference value: 2%); format: functional
HeLa [6] = assay: Induction of apoptosis in human HeLa cells assessed as early apoptotic cells at 100 nM after 48 hrs by Annexin V-FITC/propidium iodide staining based flow cytometry (reference value: 0.7%); format: functional
HeLa [7] = assay: Induction of apoptosis in human HeLa cells assessed as necrotic cells at 100 nM after 48 hrs by Annexin V-FITC/propidium iodide staining based flow cytometry (reference value: 0.9%); format: functional
Mus musculus [8] = assay: Acute toxicity in ICR mouse assessed as death at 25 mg/kg, ip measured after 3 days; format: organism-based; details: in vivo, 72 h
[9] = biological target: Mitotic checkpoint serine/threonine-protein kinase BUB1 beta (Homo sapiens) (UniProt O60566); assay: Induction of BubR1 hyperphosphorylation in human HeLa cells by Western blot analysis; format: cell-based
HeLa [10] = assay: Induction of apoptosis in human HeLa cells after 48 hrs by Annexin V-FITC/propidium iodide staining based flow cytometry; format: functional, cell-based
[11] = Acute toxicity in ICR mouse assessed as survival rate at 70 mg/kg, ip measured on day 14 (reference value: 100%); format: organism-based; details: in vivo
Sus scrofa = species: Sus scrofa; assay: Inhibition of pig brain tubulin polymerization measured every 1 min for 20 mins by spectrophotometric method
HeLa [12] = assay: Induction of apoptosis in human HeLa cells assessed as live cells at 200 nM after 48 hrs by Annexin V-FITC/propidium iodide staining based flow cytometry (reference value: 96.5%); format: functional
HeLa [13] = assay: Induction of apoptosis in human HeLa cells assessed as late apoptotic cells at 50 nM after 48 hrs by Annexin V-FITC/propidium iodide staining based flow cytometry (reference value: 2%); format: functional
A2780 [14] = assay: Antitumor activity against human A2780 cells xenografted in Balb/c nude mouse assessed as tumor volume inhibition at 7.5 mg/kg, ip once in every 2 days measured up to 14 days relative to control; format: functional
HeLa [15] = assay: Upregulation of Cyclin-B1 protein expression in human HeLa cells at 50 to 200 nM by Western blot analysis; format: functional, cell-based
Mus musculus [16] = assay: Toxicity in Balb/c nude mouse xenografted with human A2780 cells assessed as abnormality in liver at 7.5 mg/kg, ip once in every 2 days measured after 14 days by H and E staining based assay; format: organism-based; details: in vivo, 336 h
HeLa [17] = assay: Upregulation of p53 protein expression in human HeLa cells after 48 hrs by Western blot analysis; format: functional, cell-based
HeLa [18] = assay: Cell cycle arrest in human HeLa cells assessed as accumulation at G2/M-phase at 50 to 100 nM after 24 hrs by propidium iodide staining based flow cytometry; format: functional
Mus musculus [19] = assay: Acute toxicity in ICR mouse assessed as death at 25 to 95 mg/kg, ip measured after 2 days; format: organism-based; details: in vivo, 48 h
HeLa [20] = assay: Upregulation of cleaved PARP1 protein expression in human HeLa cells after 48 hrs by Western blot analysis; format: functional, cell-based
[21] = Acute toxicity in ICR mouse assessed as survival rate at 95 mg/kg, ip measured on day 14 (reference value: 100%); format: organism-based; details: in vivo
Mus musculus [22] = assay: Acute toxicity in ICR mouse assessed as death at 25 to 50 mg/kg, ip measured after 5 to 14 days; format: organism-based; details: in vivo
Mus musculus [23] = assay: Toxicity in Balb/c nude mouse xenografted with human A2780 cells assessed as abnormality in spleen at 7.5 mg/kg, ip once in every 2 days measured after 14 days by H and E staining based assay; format: organism-based; details: in vivo, 336 h
HeLa [24] = assay: Induction of apoptosis in human HeLa cells assessed as live cells at 50 nM after 48 hrs by Annexin V-FITC/propidium iodide staining based flow cytometry (reference value: 96.5%); format: functional
[25] = Acute toxicity in ICR mouse assessed as survival rate at 35 mg/kg, ip measured on day 14 (reference value: 100%); format: organism-based; details: in vivo
A2780 [26] = assay: Antitumor activity against human A2780 cells xenografted in Balb/c nude mouse assessed as isolated tumor weight inhibition at 7.5 mg/kg, ip once in every 2 days measured after 14 days; format: functional, organism-based
Homo sapiens [27] = species: Homo sapiens; assay: Disruption of microtubule structure in human SKOV3 cells assessed as decrease in density at 100 nM after 24 hrs by DAPI staining based immunofluorescence assay; format: cell-based
Mus musculus [28] = assay: Anti-vascular activity in Balb/c nude mouse assessed as inhibition of VEGF-induced capillary blood vessel formation by measuring reduction in hemoglobin level using sc injected matrigel plug supplemented with 100 nM test compound mixed with VEGF and measured after 1 week by matrigel plug assay; format: functional, organism-based
HeLa [29] = assay: Induction of apoptosis in human HeLa cells assessed as early apoptotic cells at 50 nM after 48 hrs by Annexin V-FITC/propidium iodide staining based flow cytometry (reference value: 0.7%); format: functional
HeLa [30] = assay: Induction of histone-H3 phosphorylation in human HeLa cells by Western blot analysis; format: cell-based
Mus musculus [31] = assay: Acute toxicity in ICR mouse assessed as death at 25 to 50 mg/kg, ip measured after 4 days; format: organism-based; details: in vivo, 96 h
Mus musculus [32] = assay: Anti-vascular activity in Balb/c nude mouse assessed as inhibition of VEGF-induced capillary blood vessel formation using sc injected matrigel plug supplemented with 100 nM test compound mixed with VEGF and measured after 1 week by matrigel plug assay; format: functional, organism-based
[33] = Growth inhibition of HOSEC at 1 uM after 48 hrs by MTT assay relative to control; details: human, HOSEC cells; read-out: GI
A2780 [34] = assay: Antitumor activity against human A2780 cells xenografted in Balb/c nude mouse assessed as induction of tumor necrosis at 7.5 mg/kg, ip once in every 2 days measured after 14 days by H and E staining based assay; format: functional, organism-based
A2780 [35] = assay: Antitumor activity against human A2780 cells xenografted in Balb/c nude mouse assessed as tumor weight inhibition at 7.5 mg/kg, ip once in every 2 days measured up to 14 days; format: functional, organism-based
HeLa [36] = assay: Induction of apoptosis in human HeLa cells assessed as necrotic cells at 200 nM after 48 hrs by Annexin V-FITC/propidium iodide staining based flow cytometry (reference value: 0.9%); format: functional
Mus musculus [37] = assay: Acute toxicity in ICR mouse assessed as death at 25 to 95 mg/kg, ip measured after 1 day; format: organism-based; details: in vivo, 24 h
HeLa [38] = assay: Induction of apoptosis in human HeLa cells assessed as necrotic cells at 50 nM after 48 hrs by Annexin V-FITC/propidium iodide staining based flow cytometry (reference value: 0.9%); format: functional
Mus musculus [39] = assay: Toxicity in Balb/c nude mouse xenografted with human A2780 cells assessed as abnormality in kidney at 7.5 mg/kg, ip once in every 2 days measured after 14 days by H and E staining based assay; format: organism-based; details: in vivo, 336 h
HeLa [40] = assay: Induction of apoptosis in human HeLa cells assessed as late apoptotic cells at 200 nM after 48 hrs by Annexin V-FITC/propidium iodide staining based flow cytometry (reference value: 2%); format: functional
[41] = Acute toxicity in ICR mouse assessed as survival rate at 25 mg/kg, ip measured on day 14 (reference value: 100%); format: organism-based; details: in vivo
HUVEC = assay: Antiangiogenic activity against HUVEC assessed as disruption of capillary-like tube formation at 25 to 50 nM after 12 hrs by inverted microscopic method; format: functional, cell-based; details: Homo sapiens
HeLa [42] = assay: Induction of apoptosis in human HeLa cells assessed as early apoptotic cells at 200 nM after 48 hrs by Annexin V-FITC/propidium iodide staining based flow cytometry (reference value: 0.7%); format: functional
HeLa [43] = assay: Upregulation of Bax protein expression in human HeLa cells after 48 hrs by Western blot analysis; format: functional, cell-based
[44] = Acute toxicity in ICR mouse assessed as survival rate at 50 mg/kg, ip measured on day 14 (reference value: 100%); format: organism-based; details: in vivo
Mus musculus [45] = assay: Toxicity in Balb/c nude mouse xenografted with human A2780 cells assessed as body weight loss at 7.5 mg/kg, ip once in every 2 days measured up to 14 days; format: organism-based; details: in vivo
MDA-MB-231 = assay: Anticlonogenic activity against human MDA-MB-231 cells incubated for 48 hrs followed by replacement with fresh medium measured after 7 to 10 days by gentian violet staining based assay; format: functional, cell-based

Chain of Mitotic checkpoint serine/threonine-protein kinase BUB1 beta (Homo sapiens) (O60566 whole entry): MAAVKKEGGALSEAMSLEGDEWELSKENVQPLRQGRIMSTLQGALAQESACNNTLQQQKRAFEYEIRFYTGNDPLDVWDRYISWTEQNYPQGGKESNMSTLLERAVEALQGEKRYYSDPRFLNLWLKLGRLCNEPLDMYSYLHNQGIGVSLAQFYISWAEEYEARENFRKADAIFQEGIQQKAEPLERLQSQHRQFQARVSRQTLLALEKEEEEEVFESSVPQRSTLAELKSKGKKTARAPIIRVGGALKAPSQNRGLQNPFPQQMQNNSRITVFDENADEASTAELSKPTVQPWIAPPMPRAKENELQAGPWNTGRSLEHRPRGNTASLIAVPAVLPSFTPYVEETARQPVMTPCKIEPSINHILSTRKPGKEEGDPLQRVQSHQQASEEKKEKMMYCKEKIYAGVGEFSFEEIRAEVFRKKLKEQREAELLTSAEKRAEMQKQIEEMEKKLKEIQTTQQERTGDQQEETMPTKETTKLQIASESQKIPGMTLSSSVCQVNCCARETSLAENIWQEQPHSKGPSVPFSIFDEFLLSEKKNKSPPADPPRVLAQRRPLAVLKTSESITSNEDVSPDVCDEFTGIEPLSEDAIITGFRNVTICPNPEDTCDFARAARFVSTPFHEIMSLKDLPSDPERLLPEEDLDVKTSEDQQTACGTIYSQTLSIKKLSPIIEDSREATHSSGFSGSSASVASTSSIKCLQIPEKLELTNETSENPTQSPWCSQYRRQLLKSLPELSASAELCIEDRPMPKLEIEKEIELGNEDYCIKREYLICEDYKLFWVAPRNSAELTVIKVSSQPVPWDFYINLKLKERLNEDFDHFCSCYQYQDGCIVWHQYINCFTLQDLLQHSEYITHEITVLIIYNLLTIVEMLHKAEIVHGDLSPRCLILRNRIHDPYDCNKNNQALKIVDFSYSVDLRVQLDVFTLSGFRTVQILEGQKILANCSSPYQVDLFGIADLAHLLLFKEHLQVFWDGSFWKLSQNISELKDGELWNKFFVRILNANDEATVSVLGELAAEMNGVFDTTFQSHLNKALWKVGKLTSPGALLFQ

In the case of `CC(=O)O[C@H]1C(=O)[C@@]2(C)[C@H]([C@H](OC(=O)c3ccccc3)[C@]3(O)C[C@H](OC(=O)[C@H](O)[C@@H](NC(=O)c4ccccc4)c4ccccc4)C(C)=C1C3(C)C)[C@]1(OC(C)=O)CO[C@@H]1C[C@@H]2O`, the “tubulin polymerization inhibition (active/inactive)” value (HeLa [1]) is reported as “inactive” and the Activity (Homo sapiens [2]) is reported as “inactive”.
With `COc1ccc(/C=C\c2cc(OC)c(OC)c(OC)c2)cc1O` [COMBRETASTATIN A4] the Activity (HeLa [3]) was 30%, the Activity (HeLa [4]) was 100% and the “tubulin polymerization inhibition (active/inactive)” value (HeLa [1]) was “Active”. The Activity (Homo sapiens [2]) was “Active”, the Activity (HeLa [5]) was 29.2% and the Activity (HeLa [6]) was 33.3%. It also gave an Activity (HeLa [7]) of 7.5%.
In the case of `COc1ccc([C@H]2[C@H](CO)C(=O)N2c2cc(OC)c(OC)c(OC)c2)cc1O`, the Activity (Mus musculus [8]) is reported as “Non-Toxic”, the Activity [9] is reported as “Dose-dependent effect” and the Activity (HeLa [10]) is reported as “Dose-dependent effect”. The survival at 14 day [11] was 30%, the inhibition (Sus scrofa) was “Dose-dependent effect” and the Activity (HeLa [12]) was 22.6%. For the same compound, the Activity (HeLa [3]) was 36.3%, the Activity (HeLa [13]) was 20.1% and the inhibition in vivo at 7.5 mg/kg (A2780 [14]) was 78.9%. For the same compound, the Activity (HeLa [15]) was “Active”, the Activity (Mus musculus [16]) was “Non-Toxic” and the Activity (HeLa [17]) was “Dose-dependent effect”. For the same compound, the Activity (HeLa [18]) was “Active”, the Activity (Mus musculus [19]) was “Non-Toxic” and the Activity (HeLa [20]) was “Dose-dependent effect”. The survival at 14 day [21] was 20%, the Activity (Mus musculus [22]) was “Non-Toxic” and the Activity (Mus musculus [23]) was “Non-Toxic”. For the same compound, the Activity (HeLa [24]) was 48.2%, the survival at 14 day [25] was 90% and the inhibition (A2780 [26]) was “Active”. For the same compound, the Activity (Homo sapiens [27]) was “Active”, the inhibition (Mus musculus [28]) was “Active” and the Activity (HeLa [29]) was 18.6%. The Activity (HeLa [30]) was “Dose-dependent effect”, the Activity (Mus musculus [31]) was “Non-Toxic” and the inhibition (Mus musculus [32]) was “Active”. For the same compound, the inhibition at 48 h, 1 µM [33] was under 50%, the “tubulin polymerization inhibition (active/inactive)” value (HeLa [1]) was “Active” and the Activity (A2780 [34]) was “Active”. For the same compound, the inhibition (A2780 [35]) was “Active”, the Activity (HeLa [36]) was 6.7% and the Activity (Mus musculus [37]) was “Non-Toxic”. The Activity (HeLa [38]) was 13%, the Activity (Mus musculus [39]) was “Non-Toxic” and the Activity (HeLa [5]) was 24.6%. For the same compound, the Activity (HeLa [40]) was 34.6%, the survival at 14 day [41] was 100% and the Activity (HUVEC) was “Active”. For the same compound, the Activity (HeLa [6]) was 32.9%, the Activity (HeLa [42]) was 36.1% and the Activity (HeLa [43]) was “Dose-dependent effect”. The survival at 14 day [44] was 90%, the Activity (Mus musculus [45]) was “Non-Toxic” and the Activity (HeLa [7]) was 6.1%. The Activity (MDA-MB-231) was “Dose-dependent effect”.
